# Data reported in patent publication US7919506B2, “Dibenzyl amine compounds and derivatives” (Pfizer Inc., priority 2006, dated 2011).
structure (smiles),measurement,value
"COC1(c2ccc(C(F)(F)F)cc2CN(Cc2cc(C(F)(F)F)cc(C(F)(F)F)c2)c2nnn(C)n2)CCCCCC1 [Example 52, N-(2-(1-methoxycycloheptyl)-5-(trifluoromethyl)benzyl)-N-(3,5-bis(trifluoromethyl)benzyl)-2-methyl-2H-tetrazol-5-amine]",melting point,103 to 104 °C
